Measured values taken from ChEMBL document CHEMBL5505995, “Discovery of novel urea derivatives as ferroptosis and autophagy inducer for human colon cancer treatment” (Eur J Med Chem, 2024).
The source made the active and inactive calls. The rule behind the calls is not given here.

Assays:
K562 = assay: Antiproliferative activity against human K562 cells assessed as inhibition of cell growth incubated for 48 hrs by MTT assay; format: functional, cell-based; details: K562, 48 h
HepG2 = assay: Antiproliferative activity against human HepG2 cells assessed as inhibition of cell growth incubated for 48 hrs by MTT assay; format: functional, cell-based; details: HepG2, 48 h
HT-29 [1] = assay: Induction of cell cycle arrest in human HT-29 cells assessed as accumulation of cells at G2/M phase at 1 uM incubated for 48 hrs by propidium iodide staining based flow cytometric analysis; format: functional
HT-29 [2] = assay: Induction of cell cycle arrest in human HT-29 cells assessed as accumulation of cells at G2/M phase at 4 uM incubated for 48 hrs by propidium iodide staining based flow cytometric analysis relative to control; format: functional
HT-29 [3] = assay: Induction of ferroptosis in human HT-29 cells assessed as increase in intracellular iron level incubated for 48 hrs; format: functional, cell-based
HT-29 [4] = assay: Induction of ferroptosis in human HT-29 cells assessed as decrease in GPX4 expression incubated for 48 hrs by Western blotting analysis; format: functional, cell-based
HT-29 [5] = assay: Induction of ferroptosis in human HT-29 cells assessed as decrease in intracellular GSH level at 1 to 4 uM incubated for 48 hrs; format: functional, cell-based; details: dose 1-4 µM
HT-29 [6] = assay: Induction of ferroptosis in human HT-29 cells assessed as increase in intracellular lipid peroxidation accumulation incubated for 48 hrs in presence of ferroptosis inhibitor CPX by C11 BODIPY 581/591 staining based flow cytometry; format: functional, cell-based
HT-29 [7] = assay: Induction of ferroptosis in human HT-29 cells assessed as increase in intracellular malondialdehyde accumulation incubated for 48 hrs in presence of ferroptosis inhibitor deferoxamine; format: functional, cell-based
HT-29 [8] = assay: Induction of ferroptosis in human HT-29 cells assessed as decrease in GPx level incubated for 48 hrs in presence of ferroptosis inhibitor CPX; format: functional, cell-based
HT-29 [9] = assay: Induction of ferroptosis in human HT-29 cells assessed as increase in mitochondrial membrane density incubated for 48 hrs by transmission electron microscopic analysis; format: functional, cell-based
HT-29 [10] = assay: Induction of ROS production in human HT-29 cells assessed as increase in red fluorescence intensity incubated for 48 hrs by DHE fluorescent probe based flow cytometry; format: functional, cell-based
HT-29 [11] = assay: Induction of ferroptosis in human HT-29 cells assessed as increase in intracellular iron level incubated for 48 hrs in presence of ROS scavenger NAC; format: functional, cell-based
HT-29 [12] = assay: Induction of ferroptosis in human HT-29 cells assessed as increase in intracellular lipid peroxidation accumulation incubated for 48 hrs in presence of ROS scavenger NAC by C11 BODIPY 581/591 staining based flow cytometry; format: functional, cell-based
Cell membrane [13] = assay: Induction of mitochondrial membrane potential loss in human HT-29 cells assessed as decrease in orange-red fluorescence incubated for 48 hrs by JC-1 staining based flow cytometry; format: cell membranes
Cell membrane [14] = assay: Induction of mitochondrial membrane potential loss in human HT-29 cells assessed as increase in green fluorescence incubated for 48 hrs by JC-1 staining based flow cytometry; format: cell membranes
HT-29 [15] = assay: Antiproliferative activity against human HT-29 cells assessed as inhibition of cell growth at 1 to 10 uM incubated for 48 hrs by MTT assay; format: functional, cell-based; details: dose 1-10 µM

COc1ccc2c(c1)NCCN2C(=O)NCCCl
IC50 (K562): 4.92 µM | IC50 (HepG2): 13.8 µM | Activity (HT-29 [1]): inactive | Activity (HT-29 [2]): >80% | Activity (HT-29 [3]): Dose-Dependent Effect | Activity (HT-29 [4]): Dose-Dependent Effect | Activity (HT-29 [5]): Active | Activity (HT-29 [6]): inactive | Activity (HT-29 [7]): inactive | Activity (HT-29 [8]): inactive | Activity (HT-29 [9]): Active | Activity (HT-29 [10]): Active | Activity (HT-29 [11]): inactive | Activity (HT-29 [12]): inactive | Activity (Cell membrane [13]): Dose-Dependent Effect | Activity (Cell membrane [14]): Dose-Dependent Effect | Activity (HT-29 [15]): Active
